Laboratory results as given in patent publication US12110289B2, “Heterocyclic compounds, preparation methods and uses thereof” (InventisBio Co., Ltd., priority 2020, dated 2024).
Read-outs that look alike come from different tables or passages of the source.

Experiments:
[1] = Human hepatocyte clearance study; type: in vitro ADME; conditions: human, pooled cryopreserved human hepatocytes (suspension); for hepatocyte CLint at 1 µM: read-out: Human In vitro Clint (μl/min/10^6 cells); for half-life at 1 µM: read-out: Human In vitro T1/2; for CLint scaled at 1 µM: read-out: Human Scale-up Clint
Procedure: (§1) The in vitro human hepatocyte clearance of compounds described here was studied using pooled human hepatocytes purchased from BioreclamationIVT (Westbury, NY, Cat #X008001, Lot #TQJ). The assay was conducted according to manufacturer's instruction. Briefly, 10 mM stock solutions of test compounds and positive control (Verapamil) were prepared in 100% DMSO. Thawing media (50 mL) used in the study consists of 31 mL Williams E medium (GIBCO Cat #12551-032), 15 mL isotonic percoll (GE Healthcare Cat #17-0891-09), 500 uL 100× GlutaMax (GIBCO Cat #35050), 750 uL HEPES (GIBCO Cat #15630-080), 2.5 mL FBS (Corning Cat #35-076-CVR), 50 uL human insulin (GIBCO Cat #12585-014) and 5 uL dexamethasone (NICPBP). Incubation media is made of Williams E medium supplemented with 1× GlutaMax. Both thawing medium and incubation medium (serum-free) were placed in a 37° C. water bath for at least 15 minutes prior to use. Compound stock solutions were diluted to 100 μM by combining 198 μL of 50% acetonitrile/50% water and 2 μL of 10 mM stock solution. Verapamil was use as positive control in the assay. Vials of cryopreserved hepatocytes were removed from storage and thawed in a 37° C. water bath with gentle shaking. Contents of the vial were poured into the 50 mL thawing medium conical tube. Vials were centrifuged at 100 g for 10 minutes at room temperature. […] […] […] The boiled hepatocytes were used to prepare negative samples. Aliquots of 198 μL hepatocytes were dispensed into each well of a 96-well non-coated plate. The plate was placed in the incubator on an orbital shaker at 500 rpm for approximately 10 minutes. Aliquots of 2 μL of the 100 μM test compound or positive control were added into respective wells of the non-coated 96-well plate to start the reaction. This assay was performed in duplicate. The plate was incubated in the incubator on an orbital shaker at 500 rpm for the designated time points. Twenty-five microliter of contents were transferred and mixed with 6 volumes (150 μL) of cold acetonitrile with IS (200 nM imipramine, 200 nM labetalol and 200 nM diclofenac) to terminate the reaction at time points of 0, 15, 30, 60, 90 and 120 minutes. Samples were centrifuged at 3,220 g for 25 minutes and aliquots of 150 μL of the supernatants were used for LC-MS/MS analysis. For data analysis, all calculations were carried out using Microsoft Excel. Peak areas were determined from extracted ion chromatograms. The in vitro half-life (t1/2) of parent compound was determined by regression analysis of the percent parent disappearance vs. time curve. […] Scaling factors for in vivo intrinsic clearance prediction using human hepatocytes are listed as: liver weight (g liver/kg body weight): 25.7; hepatocyte concentration (10^6 cells/g liver): 99; scaling factor: 2544.3.

pooled human hepatocytes = assay: Human hepatocyte clearance study; type: in vitro ADME
Procedure: as §1

[2] = system: Lung cancer cell line NCI-H358 containing KRas G12C mutation; assay: Assay for cell proliferation (Cell-titer Glo, 5 days); type: cell-based, human; conditions: Homo sapiens, NCI-H358, 120 h, NCI-H358, 5 days, Cell-titer Glo; read-out: IC50 (nM), Inhibition of NCI-H358 Cell Proliferation
Procedure, shortened: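 NCI-H358 (KRas G12C) cells, 2000 per well, attached overnight at 37 °C, 5% CO2, then treated with compound for 5 days at 0.5% DMSO final. Proliferation measured by CellTiter-Glo luminescence after 10 min at RT.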

[3] = working cell density 0.5 × 10^6 viable cells/mL
[4] = working cell density 0.5 × 10^6 viable cells/mL, scaling factor 2544.3
[5] = working cell density 2 × 10^6 viable cells/mL

| SMILES | hepatocyte CLint at 1 µM [1, 3] [µL/min/1e6 cells] | half-life at 1 µM [1, 3] [h] | CLint scaled at 1 µM [1, 4] [mL/min/kg] | Human Hepatocyte Remaining Percentage @ 120 min (%) (pooled human hepatocytes; [3]) | IC50 [2] [nM] | Human In vitro T1/2 (min) (pooled human hepatocytes; [3]) | hepatocyte CLint at 1 µM [1, 5] [µL/min/1e6 cells] | half-life at 1 µM [1, 5] [h] | CLint scaled at 1 µM [1, 5] [mL/min/kg] | Human Hepatocyte Remaining Percentage @ 120 min (%) (pooled human hepatocytes; [5]) |
| --- | --- | --- | --- | --- | --- | --- | --- | --- | --- | --- |
| C=CC(=O)N1CCN(c2nc(=O)n(-c3c(C4CC4)ncnc3C3CC3)c3nc(-c4ccccc4F)c(Cl)cc23)[C@@H](C)C1 [Compound 1] | 20.8 | 1.11 | 53 | 27.9 | 10 |  |  |  |  |  |
| C=CC(=O)N1CCN(c2nc(=O)n(-c3c(C(C)C)nc(N)nc3C(C)C)c3nc(-c4ccccc4F)c(Cl)cc23)[C@@H](C)C1 [Compound 6] | 19.3 | 1.2 | 49.2 | 33.4 | 4.9 |  |  |  |  |  |
| C=CC(=O)N1CCN(c2nc(=O)n(-c3c(C(C)C)nc(OC)nc3C(C)C)c3nc(-c4ccccc4F)c(Cl)cc23)[C@@H](C)C1 [Compound 8] | 63.8 | 0.362 | 162 | 2.1 | 11.2 |  |  |  |  |  |
| C=CC(=O)N1CCN(c2nc(=O)n(-c3c(C(C)C)nc(C)nc3C(C)C)c3nc(-c4ccccc4F)c(Cl)cc23)[C@@H](C)C1 [Compound 9] | 27.6 | 0.837 | 70.2 | 18.6 | 4.1 |  |  |  |  |  |
| C=CC(=O)N1CCN(c2nc(=O)n(-c3c(C(C)C)nc(OCCN(C)C)nc3C(C)C)c3nc(-c4ccccc4F)c(Cl)cc23)[C@@H](C)C1 [Compound 13] |  |  |  | 103 | 6.5 | ∞^b |  |  |  |  |
| C=CC(=O)N1CCN(c2nc(=O)n(-c3c(C(C)C)nc(N4CCNCC4)nc3C(C)C)c3nc(-c4ccccc4F)c(Cl)cc23)[C@@H](C)C1 [Compound 14] | 4.5 | 5.1 | 11.5 | 75.7 | 8.8 |  |  |  |  |  |
| C=CC(=O)N1CCN(c2nc(=O)n(-c3c(C4CC4)nc(OCCN(C)C)nc3C3CC3)c3nc(-c4ccccc4F)c(Cl)cc23)[C@@H](C)C1 [Compound 20] | 5.1 | 4.57 | 12.9 | 74.3 | 6.7 |  |  |  |  |  |
| C=CC(=O)N1CCN(c2nc(=O)n(-c3c(C4CC4)nc(OCCN(C)C)nc3C3CC3)c3nc(-c4ccccc4F)c(F)cc23)[C@@H](C)C1 [Compound 21] | 1.8 | 13.1 | 4.5 | 90.6 | 29.9 |  |  |  |  |  |
| C=CC(=O)N1CCN(c2nc(=O)n(-c3c(C(C)C)nc(OCCN(C)C)nc3C(C)C)c3nc(-c4c(O)cccc4F)c(Cl)cc23)[C@@H](C)C1 [Compound 22] | 2.9 | 7.87 | 7.5 | 83.3 | 7.6 |  |  |  |  |  |
| C=CC(=O)N1CCN(c2nc(=O)n(-c3c(C(C)C)nc(OCCN(C)C)nc3C(C)C)c3nc(-c4c(N)cccc4F)c(Cl)cc23)[C@@H](C)C1 [Compound 23] | 2.5 | 9.23 | 6.4 | 82.4 | 6.9 |  |  |  |  |  |
| C=CC(=O)N1C[C@H](C)N(c2nc(=O)n(-c3c(C(C)C)nc(OCCN(C)C)nc3C(C)C)c3nc(-c4ccccc4F)c(Cl)cc23)C[C@H]1C [Compound 24] | 5.9 | 3.9 | 15.1 | 70.1 | 9.1 |  |  |  |  |  |
| C=CC(=O)N1CCN(c2nc(=O)n(-c3c(C4CC4)nc(C)nc3C3CC3)c3nc(-c4c(O)cccc4F)c(F)cc23)[C@@H](C)C1 [Compound 28] | 8.4 | 2.73 | 21.5 | 61.1 | 23.3 |  |  |  |  |  |
| C=CC(=O)N1CCN(c2nc(=O)n(-c3c(C4CC4)nc(C)nc3C3CC3)c3nc(-c4c(N)cccc4F)c(F)cc23)[C@@H](C)C1 [Compound 29] | 8.5 | 2.72 | 21.7 | 60.8 | 11.4 |  |  |  |  |  |
| C=CC(=O)N1CCN(c2nc(=O)n(-c3c(C4CC4)ncnc3C3CC3)c3nc(-c4c(O)cccc4F)c(F)cc23)[C@@H](C)C1 [Compound 40] |  |  |  |  | 7.5 |  | 12.7 | 0.91 | 32.3 | 20.7 |
| C=CC(=O)N1CCN(c2nc(=O)n(-c3c(C4CC4)ncnc3C3CC3)c3nc(-c4c(N)cccc4F)c(F)cc23)[C@@H](C)C1 [Compound 41] |  |  |  |  | 6.9 |  | 8.2 | 1.41 | 20.9 | 38.9 |
| C=CC(=O)N1C[C@H](C)N(c2nc(=O)n(-c3c(C4CC4)nc(C)nc3C3CC3)c3nc(-c4c(O)cccc4F)c(F)cc23)C[C@H]1C [Compound 52] | 7.3 | 3.17 | 18.5 | 65.3 | 22.8 |  |  |  |  |  |
| C=CC(=O)N1CCN(c2nc(=O)n(-c3ccc4c(ncn4C)c3C(C)C)c3nc(-c4ccccc4F)c(Cl)cc23)[C@@H](C)C1 [Compound 72] | 13.3 | 1.73 | 34 | 41.2 | 13.1 |  |  |  |  |  |
| C=CC(=O)N1CCN(c2nc(=O)n(-c3c(C4CC4)ncnc3C3CC3)c3nc(-c4c(N)cccc4F)c(Cl)cc23)[C@@H](C)C1 [Compound 124] |  |  |  |  | 2.4 |  | 8.5 | 1.35 | 21.7 | 37.5 |
| C=CC(=O)N1CCN(c2nc(=O)n(-c3c(C4CC4)ncnc3C3CC3)c3nc(-c4c(O)cccc4F)c(Cl)cc23)[C@@H](C)C1 [Compound 125] |  |  |  |  | 6.1 |  | 14.5 | 0.8 | 36.8 | 16.5 |
| C=CC(=O)N1C[C@H](C)N(c2nc(=O)n(-c3c(C4CC4)ncnc3C3CC3)c3nc(-c4c(O)cccc4F)c(Cl)cc23)C[C@H]1C [Compound 127] |  |  |  |  | 3.5 |  | 4.4 | 2.64 | 11.1 | 55.5 |
| C=CC(=O)N1C[C@H](C)N(c2nc(=O)n(-c3c(C4CC4)ncnc3C3CC3)c3nc(-c4ccccc4F)c(Cl)cc23)C[C@H]1C [Compound 128] |  |  |  |  | 8.7 |  | 10.3 | 1.12 | 26.1 | 39.9 |
